Test results taken from US5026715A, “2-guanidino-4-arylthiazoles for treatment of peptic ulcers” (Pfizer Inc., priority 1989, dated 1991).
Where a name gives a salt, the structure may show the parent alone.

What follows are compounds tested against T1, H^+ / K^+ ATPase isolated from canine gastric mucosa (Canis lupus familiaris, UniProt P50996) (assay: Inhibition of H+/K+ ATPase isolated from canine gastric mucosa). Settings: preincubated 45 minutes at 37° C., pH 7.5, drugs preferably acid activated in 1:1 dimethylsulfoxide:0.02N HCl, 30 minutes, read-out: IC50 (the concentration which inhibits the enzyme to the extent of 50%).
T1 construct: ATPase isolated from canine gastric mucosa; from tissue; host or cells: canine gastric mucosa
T1 sequence (P50996 2-1034 limits assumed): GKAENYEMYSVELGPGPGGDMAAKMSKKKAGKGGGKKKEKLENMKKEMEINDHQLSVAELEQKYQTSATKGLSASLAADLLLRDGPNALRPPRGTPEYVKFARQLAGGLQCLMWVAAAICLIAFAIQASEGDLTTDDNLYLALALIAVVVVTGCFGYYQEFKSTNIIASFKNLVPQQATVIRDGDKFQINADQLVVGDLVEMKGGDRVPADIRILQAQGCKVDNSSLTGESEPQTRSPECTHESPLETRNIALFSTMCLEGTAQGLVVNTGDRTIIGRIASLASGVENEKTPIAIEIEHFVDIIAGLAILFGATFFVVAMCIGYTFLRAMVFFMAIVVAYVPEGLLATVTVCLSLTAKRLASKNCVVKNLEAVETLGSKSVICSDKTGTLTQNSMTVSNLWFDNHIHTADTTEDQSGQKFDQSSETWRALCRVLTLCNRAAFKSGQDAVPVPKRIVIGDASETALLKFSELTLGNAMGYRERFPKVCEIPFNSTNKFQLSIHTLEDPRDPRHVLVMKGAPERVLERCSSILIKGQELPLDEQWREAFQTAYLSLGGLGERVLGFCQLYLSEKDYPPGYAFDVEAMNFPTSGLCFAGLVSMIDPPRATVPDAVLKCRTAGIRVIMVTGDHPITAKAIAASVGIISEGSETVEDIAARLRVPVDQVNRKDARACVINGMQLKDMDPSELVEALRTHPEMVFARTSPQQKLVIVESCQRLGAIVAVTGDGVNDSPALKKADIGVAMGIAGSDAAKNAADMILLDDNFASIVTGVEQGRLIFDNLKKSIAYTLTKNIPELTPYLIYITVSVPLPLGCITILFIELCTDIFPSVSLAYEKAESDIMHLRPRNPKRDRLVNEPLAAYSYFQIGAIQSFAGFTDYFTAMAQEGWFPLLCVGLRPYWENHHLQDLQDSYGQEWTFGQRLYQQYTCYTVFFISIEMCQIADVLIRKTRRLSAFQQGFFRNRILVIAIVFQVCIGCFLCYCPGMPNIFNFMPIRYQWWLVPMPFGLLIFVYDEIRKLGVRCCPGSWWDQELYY
T1 sequence (P33704 whole entry partner): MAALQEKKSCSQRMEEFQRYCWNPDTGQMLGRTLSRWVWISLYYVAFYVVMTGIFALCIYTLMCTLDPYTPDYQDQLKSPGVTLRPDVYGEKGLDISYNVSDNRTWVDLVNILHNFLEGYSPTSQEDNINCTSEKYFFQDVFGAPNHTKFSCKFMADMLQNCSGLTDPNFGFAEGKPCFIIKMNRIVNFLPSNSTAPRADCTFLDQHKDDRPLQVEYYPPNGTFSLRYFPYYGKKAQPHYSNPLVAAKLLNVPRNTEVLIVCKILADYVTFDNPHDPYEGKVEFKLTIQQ
Assay type: biochemical
Method: The utility of the present compounds as antiulcer agents is reflected in vitro by their inhibition of H^+ / K^+ ATPase isolated from canine gastric mucosa. The enzyme activity was assayed according to Beil et al., Brit. J. Pharmacol. 82, 651-657 (1984) with slight modifications. The enzyme (1-2 micrograms) was preincubated at 37° C. for 45 minutes with a medium containing 2×10^-3 M MgCl2, 0.05M Tris-Cl buffer (pH 7.5) with or without 0.01M KCl, and the acid activated test drug in a final volume of 0.590 ml. The reaction was started by the addition of […] of ATP (final concentration 3×10^-3 M). The reaction was terminated by adding trichloroacetic acid to a concentration of 4.2%. Liberated inorganic phosphate was determined using Fiske and Subbarow Reducer available commercially (e.g., from Sigma Chemical Co., P.O. Box 14508, St. Louis, Mo. 63178, U.S.A.). In this test the drugs are preferably first acid activated by incubating in 1:1 dimethylsulfoxide:0.02N HCl at 37° C. for 30 minutes.

Row | IC50 [µM] | Compound
1 | 2 | N=C(NCc1ccccc1)Nc1nc(-c2c[nH]c3ccccc23)cs1 [4-(1H-Indol-3-yl)-2-(N-benzyl-N"-guanidino)thiazole Hydrochloride]
2 | 10 | COc1cccc(-c2csc(NC(=N)NCc3ccccc3)n2)c1 [4-(3-methoxyphenyl)-2-(N-benzylguanidino)thiazole]
3 | 0.6 | N=C(NCc1ccccc1)Nc1nc(-c2c[nH]c3ccc(Cl)cc23)cs1 [4-(5-chloro-1H-indol-3-yl)-2-(N-benzylguanidino)thiazole]
4 | 15 | Cc1cc(-c2csc(NC(=N)N)n2)c[nH]1 [2-guanidino-4-(2-methylpyrrol-4-yl)thiazole]

These compounds were tested on ethanol-induced gastric ulceration in rats (assay: Inhibition of ethanol-induced gastric ulceration in rats (cytoprotective activity)). Settings: dose of 30 mg/kg.
Assay type: in vivo, rat
Text: The in vivo utility of the present compounds as antiulcer agents is also particularly shown by their cytoprotective activity.

Row | Compound | inhibition of ethanol-induced gastric ulceration [%]
5 | NC(=Nc1nc(-c2ccc[nH]2)cs1)NCc1ccccc1 [2-(N-benzylguanidino)-4-(pyrrol-2-yl)thiazole] | 99
6 | Cc1cc(-c2csc(NC(=N)N)n2)c[nH]1 [2-guanidino-4-(2-methylpyrrol-4-yl)thiazole] | 100
